From publication PMC11078216, “Discovery of potent and selective activity-based probes (ABPs) for the deubiquitinating enzyme USP30” (RSC Chemical Biology, 2024)

Key:
Assay in all cases: ABPP chemical proteomics (LC-MS/MS) in HEK293T cells
Format in all cases: cell-based
[1] = molecular target: T1, CLPTM1 (Homo sapiens, UniProt O96005); settings: compound 3 out-competition with IMP-2586 labelling, HEK293T (Table S5, Fig.5d)
T1 construct: endogenous in cells; host or cells: HEK293T
Procedure, shortened: (§1)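 Cellular target engagement was assessed by probe competition. Labelled HEK293T lysates (≥400 µg protein) underwent copper-catalysed click ligation for 1 h at room temperature. Biotinylated proteins were pulled down on NeutrAvidin agarose in 0.2% SDS/HEPES pH 8.0 for 3 h before LC-MS/MS quantification.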

[2] = molecular target: T2, LUC7L3 (Homo sapiens, UniProt O95232); settings: compound 3 out-competition with IMP-2586 labelling, HEK293T (Table S5, Fig.5d)
T2 construct: endogenous in cells; host or cells: HEK293T
Procedure, shortened: as §1

[3] = molecular target: T3, NUB1 (Homo sapiens, UniProt Q9Y5A7); settings: compound 3 out-competition with IMP-2586 labelling, HEK293T (Table S5, Fig.5d)
T3 construct: endogenous in cells; host or cells: HEK293T
Procedure, shortened: as §1

[4] = molecular target: T4, GET4 (Homo sapiens, UniProt Q7L5D6); settings: IMP-2587 labelling vs DMSO, 30 nM, 10 min, HEK293T (Table S2, Fig.5a)
T4 construct: endogenous in cells; host or cells: HEK293T
Procedure, shortened: as §1

[5] = tested on: H2AFV;H2AFZ; settings: IMP-2587 labelling vs DMSO, 30 nM, 10 min, HEK293T (Table S2, Fig.5a)
Procedure, shortened: as §1

[6] = molecular target: T5, NIT2 (Homo sapiens, UniProt Q9NQR4); settings: IMP-2587 labelling vs DMSO, 30 nM, 10 min, HEK293T (Table S2, Fig.5a)
T5 construct: endogenous in cells; host or cells: HEK293T
Procedure, shortened: as §1

[7] = molecular target: T6, ASAH1 (Homo sapiens, UniProt Q13510); settings: IMP-2586 labelling vs DMSO, 30 nM, 10 min, HEK293T (Table S4, Fig.5c)
T6 construct: endogenous in cells; host or cells: HEK293T
Procedure, shortened: as §1

[8] = molecular target: T7, CFAP20 (Homo sapiens, UniProt Q9Y6A4); settings: IMP-2586 labelling vs DMSO, 30 nM, 10 min, HEK293T (Table S4, Fig.5c)
T7 construct: endogenous in cells; host or cells: HEK293T
Procedure, shortened: as §1

[9] = molecular target: T8, MALT1 (Homo sapiens, UniProt Q9UDY8); settings: IMP-2586 labelling vs DMSO, 30 nM, 10 min, HEK293T (Table S4, Fig.5c)
T8 construct: endogenous in cells; host or cells: HEK293T
Procedure, shortened: as §1

[10] = molecular target: T9, RER1 (Homo sapiens, UniProt O15258); settings: IMP-2586 labelling vs DMSO, 30 nM, 10 min, HEK293T (Table S4, Fig.5c)
T9 construct: endogenous in cells; host or cells: HEK293T
Procedure, shortened: as §1

[11] = molecular target: T10, RPL23A (Homo sapiens, UniProt P62750); settings: IMP-2586 labelling vs DMSO, 30 nM, 10 min, HEK293T (Table S4, Fig.5c)
T10 construct: endogenous in cells; host or cells: HEK293T
Procedure, shortened: as §1

[12] = molecular target: T11, RPL27 (Homo sapiens, UniProt P61353); settings: IMP-2586 labelling vs DMSO, 30 nM, 10 min, HEK293T (Table S4, Fig.5c)
T11 construct: endogenous in cells; host or cells: HEK293T
Procedure, shortened: as §1

[13] = molecular target: T12, TMEM263 (Homo sapiens, UniProt Q8WUH6); settings: IMP-2586 labelling vs DMSO, 30 nM, 10 min, HEK293T (Table S4, Fig.5c)
T12 construct: endogenous in cells; host or cells: HEK293T
Procedure, shortened: as §1

[14] = molecular target: T13, ACTG1 (Homo sapiens, UniProt P63261); settings: compound 1 out-competition with IMP-2587 labelling, HEK293T (Table S3, Fig.5b)
T13 construct: endogenous in cells; host or cells: HEK293T
Procedure, shortened: as §1

[15] = molecular target: T14, IMPDH2 (Homo sapiens, UniProt P12268); settings: compound 1 out-competition with IMP-2587 labelling, HEK293T (Table S3, Fig.5b)
T14 construct: endogenous in cells; host or cells: HEK293T
Procedure, shortened: as §1

[16] = molecular target: T15, RPL34 (Homo sapiens, UniProt P49207); settings: compound 1 out-competition with IMP-2587 labelling, HEK293T (Table S3, Fig.5b)
T15 construct: endogenous in cells; host or cells: HEK293T
Procedure, shortened: as §1

T9 sequence (O15258 whole entry): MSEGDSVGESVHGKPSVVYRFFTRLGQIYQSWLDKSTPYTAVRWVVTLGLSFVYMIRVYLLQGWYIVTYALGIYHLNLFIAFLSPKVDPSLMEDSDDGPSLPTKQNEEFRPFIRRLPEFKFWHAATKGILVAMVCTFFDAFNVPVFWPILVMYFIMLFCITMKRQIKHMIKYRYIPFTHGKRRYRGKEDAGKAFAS
T3 sequence (Q9Y5A7 whole entry): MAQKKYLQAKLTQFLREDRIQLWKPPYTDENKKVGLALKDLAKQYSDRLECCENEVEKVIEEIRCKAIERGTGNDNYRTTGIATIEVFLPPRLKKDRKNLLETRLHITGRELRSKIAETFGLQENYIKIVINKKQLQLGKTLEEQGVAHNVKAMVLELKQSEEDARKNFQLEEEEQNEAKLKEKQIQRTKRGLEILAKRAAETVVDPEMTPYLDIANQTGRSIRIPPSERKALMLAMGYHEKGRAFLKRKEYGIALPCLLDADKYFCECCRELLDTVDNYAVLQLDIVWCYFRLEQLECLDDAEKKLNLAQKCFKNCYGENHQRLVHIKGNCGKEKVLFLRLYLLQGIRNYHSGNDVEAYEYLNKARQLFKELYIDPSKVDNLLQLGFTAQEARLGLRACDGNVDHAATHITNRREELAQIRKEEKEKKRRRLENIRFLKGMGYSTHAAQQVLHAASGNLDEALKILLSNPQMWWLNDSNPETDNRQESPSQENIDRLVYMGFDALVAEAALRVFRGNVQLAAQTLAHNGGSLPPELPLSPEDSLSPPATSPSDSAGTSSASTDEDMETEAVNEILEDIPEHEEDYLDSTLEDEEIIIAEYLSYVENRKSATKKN
T4 sequence (Q7L5D6 whole entry): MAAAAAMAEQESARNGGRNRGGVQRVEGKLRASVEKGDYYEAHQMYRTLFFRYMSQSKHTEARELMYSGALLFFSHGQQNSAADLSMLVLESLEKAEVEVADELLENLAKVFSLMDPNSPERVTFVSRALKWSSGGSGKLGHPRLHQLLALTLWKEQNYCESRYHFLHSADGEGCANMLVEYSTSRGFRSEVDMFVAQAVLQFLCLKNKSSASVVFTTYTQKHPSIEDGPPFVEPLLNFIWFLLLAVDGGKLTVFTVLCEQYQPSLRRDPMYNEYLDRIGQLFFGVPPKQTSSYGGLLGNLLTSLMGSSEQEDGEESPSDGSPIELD
T8 sequence (Q9UDY8 whole entry): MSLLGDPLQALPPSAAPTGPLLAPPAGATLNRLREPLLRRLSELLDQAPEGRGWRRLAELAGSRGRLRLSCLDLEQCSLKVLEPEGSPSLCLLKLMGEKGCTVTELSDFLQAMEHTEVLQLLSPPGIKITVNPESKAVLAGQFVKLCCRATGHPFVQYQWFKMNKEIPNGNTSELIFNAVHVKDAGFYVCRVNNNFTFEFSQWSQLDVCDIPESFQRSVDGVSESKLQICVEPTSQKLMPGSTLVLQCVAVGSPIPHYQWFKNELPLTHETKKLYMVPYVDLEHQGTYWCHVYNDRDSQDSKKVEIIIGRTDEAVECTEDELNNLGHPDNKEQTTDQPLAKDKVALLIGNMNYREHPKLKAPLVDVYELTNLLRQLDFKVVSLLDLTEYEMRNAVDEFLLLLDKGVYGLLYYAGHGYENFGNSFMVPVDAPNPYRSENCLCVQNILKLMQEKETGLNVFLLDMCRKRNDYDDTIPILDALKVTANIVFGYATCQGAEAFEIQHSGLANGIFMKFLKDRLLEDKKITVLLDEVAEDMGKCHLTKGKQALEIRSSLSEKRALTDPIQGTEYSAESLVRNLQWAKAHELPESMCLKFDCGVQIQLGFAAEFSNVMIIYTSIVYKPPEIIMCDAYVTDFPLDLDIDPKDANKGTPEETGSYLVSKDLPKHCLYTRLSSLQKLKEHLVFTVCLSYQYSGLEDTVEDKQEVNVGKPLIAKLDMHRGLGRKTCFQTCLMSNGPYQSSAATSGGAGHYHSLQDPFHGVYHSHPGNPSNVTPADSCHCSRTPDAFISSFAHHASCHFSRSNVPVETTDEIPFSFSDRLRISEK
T7 sequence (Q9Y6A4 whole entry): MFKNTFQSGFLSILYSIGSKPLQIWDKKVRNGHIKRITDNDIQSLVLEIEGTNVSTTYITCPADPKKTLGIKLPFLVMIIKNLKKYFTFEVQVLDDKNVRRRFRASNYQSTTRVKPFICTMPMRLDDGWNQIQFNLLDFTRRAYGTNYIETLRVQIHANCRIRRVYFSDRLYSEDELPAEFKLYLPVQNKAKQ
T5 sequence (Q9NQR4 whole entry): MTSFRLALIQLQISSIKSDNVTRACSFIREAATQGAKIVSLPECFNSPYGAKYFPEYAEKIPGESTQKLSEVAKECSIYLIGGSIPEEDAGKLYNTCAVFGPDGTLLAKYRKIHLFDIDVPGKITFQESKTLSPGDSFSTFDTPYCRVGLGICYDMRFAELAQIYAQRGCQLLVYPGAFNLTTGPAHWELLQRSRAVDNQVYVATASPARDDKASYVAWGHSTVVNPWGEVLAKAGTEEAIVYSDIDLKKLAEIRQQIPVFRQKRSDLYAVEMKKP
T1 sequence (O96005 whole entry): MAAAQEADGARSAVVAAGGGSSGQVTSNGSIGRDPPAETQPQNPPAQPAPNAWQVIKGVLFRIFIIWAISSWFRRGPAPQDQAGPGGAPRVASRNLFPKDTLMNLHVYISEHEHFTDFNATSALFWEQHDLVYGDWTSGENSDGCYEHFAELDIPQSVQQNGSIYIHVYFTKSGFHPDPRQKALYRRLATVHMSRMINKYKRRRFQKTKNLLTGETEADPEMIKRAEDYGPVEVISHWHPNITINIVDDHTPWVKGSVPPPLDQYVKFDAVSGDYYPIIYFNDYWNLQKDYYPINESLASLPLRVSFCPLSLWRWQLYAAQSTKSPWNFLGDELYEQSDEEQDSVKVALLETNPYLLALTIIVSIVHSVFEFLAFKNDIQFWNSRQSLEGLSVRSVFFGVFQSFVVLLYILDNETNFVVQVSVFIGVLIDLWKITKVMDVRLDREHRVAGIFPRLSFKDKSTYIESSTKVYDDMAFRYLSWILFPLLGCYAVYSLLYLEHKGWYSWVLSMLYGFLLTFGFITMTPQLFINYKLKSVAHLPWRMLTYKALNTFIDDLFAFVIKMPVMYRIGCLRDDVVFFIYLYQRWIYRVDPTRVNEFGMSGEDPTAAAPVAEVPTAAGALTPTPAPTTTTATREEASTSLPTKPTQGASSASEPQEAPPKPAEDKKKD
T2 sequence (O95232 whole entry): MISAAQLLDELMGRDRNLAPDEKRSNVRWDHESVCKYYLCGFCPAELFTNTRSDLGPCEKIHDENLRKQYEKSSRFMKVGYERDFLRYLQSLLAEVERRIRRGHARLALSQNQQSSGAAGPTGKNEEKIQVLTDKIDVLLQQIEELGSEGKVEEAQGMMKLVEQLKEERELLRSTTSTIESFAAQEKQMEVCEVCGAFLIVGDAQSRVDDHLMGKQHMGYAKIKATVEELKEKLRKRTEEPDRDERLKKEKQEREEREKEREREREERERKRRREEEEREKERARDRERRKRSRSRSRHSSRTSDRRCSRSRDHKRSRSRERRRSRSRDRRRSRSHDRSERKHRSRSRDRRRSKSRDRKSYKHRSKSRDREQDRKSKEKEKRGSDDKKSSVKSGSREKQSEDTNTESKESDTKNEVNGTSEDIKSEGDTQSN
T6 sequence (Q13510 22-395): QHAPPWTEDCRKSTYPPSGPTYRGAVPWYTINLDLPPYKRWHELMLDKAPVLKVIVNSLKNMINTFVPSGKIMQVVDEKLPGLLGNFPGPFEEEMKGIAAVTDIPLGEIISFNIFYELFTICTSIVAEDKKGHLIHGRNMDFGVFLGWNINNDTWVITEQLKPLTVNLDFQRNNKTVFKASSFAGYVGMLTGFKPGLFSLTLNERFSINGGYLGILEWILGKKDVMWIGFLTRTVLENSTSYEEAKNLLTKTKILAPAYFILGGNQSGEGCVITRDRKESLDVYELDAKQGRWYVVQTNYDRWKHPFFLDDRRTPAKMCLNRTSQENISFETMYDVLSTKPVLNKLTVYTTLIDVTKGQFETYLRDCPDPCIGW

Question: Which “Difference (log2 fold change of enrichment)” value [1] does the source give for `N#CN1CC[C@@H](NC(=O)c2cc(-c3ccccc3Oc3ccccc3)n[nH]2)C1` [compound 3, reference compound] here?
Answer: Its value is -1.18.

Question: And the “Difference (log2 fold change of enrichment)” value [2]?
Answer: The value was -0.51.

Question: And the “Difference (log2 fold change of enrichment)” value [3]?
Answer: The value was -0.38.

Question: Which “Difference (log2 fold change of enrichment)” value [4] does the source give for `C#Cc1cccc(-c2cc(NC(=O)CC3CCN(C#N)C3)on2)c1` (stereo not shown) [IMP-2587] here?
Answer: The value was 0.76.

Question: And the “Difference (log2 fold change of enrichment)” value [5]?
Answer: Its value is 0.65.

Question: What about the “Difference (log2 fold change of enrichment)” value [6] of the same compound?
Answer: Its value is 0.61.

Question: How did the “Difference (log2 fold change of enrichment)” value [7] turn out when `N#CN1CC[C@@H](NC(=O)c2cc(-c3ccccc3Oc3ccc(N=[N+]=[N-])cc3)n[nH]2)C1` [IMP-2586] was run?
Answer: Its value is 1.08.

Question: What about the “Difference (log2 fold change of enrichment)” value [8] of the same compound?
Answer: Its value is -0.41.

Question: What about the “Difference (log2 fold change of enrichment)” value [9] of the same compound?
Answer: The value was 0.75.

Question: What about the “Difference (log2 fold change of enrichment)” value [10] of the same compound?
Answer: Its value is -1.34.

Question: And the “Difference (log2 fold change of enrichment)” value [11]?
Answer: Its value is -0.57.

Question: And the “Difference (log2 fold change of enrichment)” value [12]?
Answer: Its value is -0.76.

Question: What about the “Difference (log2 fold change of enrichment)” value [13] of the same compound?
Answer: The value was -0.44.

Question: Which “Difference (log2 fold change of enrichment)” value [14] does the source give for `N#CN1CC[C@H](CC(=O)Nc2cc(-c3cccc(Cl)c3)no2)C1` [compound 1, reference compound] here?
Answer: Its value is -0.57.

Question: What about the “Difference (log2 fold change of enrichment)” value [15] of the same compound?
Answer: Its value is -0.70.

Question: What about the “Difference (log2 fold change of enrichment)” value [16] of the same compound?
Answer: Its value is -0.67.
